In PubChem BioAssay (NCI):
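Growth conditions: 96-well plates. Treatment: test compound, 48 hours, 5 concentrations. Analysis: linear interpolation between bracketing concentrations; unreached endpoints set to highest concentration. GI50 = concentration required for 50% inhibition of growth. TGI denotes the concentration required for complete inhibition of growth.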

How the values were obtained:
Assay in all cases: DTP human tumour cell line panel, 48 h
[1] = tested on: CCRF-CEM leukemia
[2] = tested on: SW-620 colon
[3] = tested on: T-47D breast
[4] = tested on: NCI-H460 lung
[5] = tested on: KM12 colon
[6] = tested on: COLO 205 colon
[7] = tested on: MDA-MB-231 breast
[8] = tested on: PC-3 prostate
[9] = tested on: DU-145 prostate
[10] = tested on: SN12C renal
[11] = tested on: SF-268 CNS
[12] = tested on: HOP-62 NSCLC
[13] = tested on: OVCAR-8 ovarian
[14] = tested on: RXF 393 renal
[15] = tested on: UO-31 renal
[16] = tested on: OVCAR-5 ovarian
[17] = tested on: HS 578T breast
[18] = tested on: A549 NSCLC
[19] = tested on: K-562 leukemia
[20] = tested on: UACC-257 melanoma
[21] = tested on: SNB-19 CNS
[22] = tested on: NCI-H23 lung
[23] = tested on: MDA-MB-435
[24] = tested on: IGROV1 ovarian
[25] = tested on: NCI/ADR-RES ovarian
[26] = tested on: SF-539 CNS
[27] = tested on: NCI-H522 lung
[28] = tested on: MALME-3M melanoma
[29] = tested on: MDA-MB-468 breast
[30] = tested on: MCF7 breast
[31] = tested on: LOX IMVI melanoma
[32] = tested on: BT-549 breast
[33] = tested on: U251 CNS
[34] = tested on: HCC-2998 colon
[35] = tested on: HCT-116 colon
[36] = tested on: NCI-H226 lung
[37] = tested on: OVCAR-3 ovarian
[38] = tested on: HCT-15 colon
[39] = tested on: SK-MEL-28 melanoma
[40] = tested on: SK-MEL-2 melanoma
[41] = tested on: 786-0 renal
[42] = tested on: OVCAR-4 ovarian
[43] = tested on: SF-295 CNS
[44] = tested on: TK-10 renal
[45] = tested on: HOP-92 NSCLC
[46] = tested on: SR leukemia
[47] = tested on: SNB-75 CNS
[48] = tested on: EKVX NSCLC
[49] = tested on: MOLT-4 leukemia
[50] = tested on: UACC-62 melanoma
[51] = tested on: HT29 colon
[52] = tested on: SK-OV-3 ovarian
[53] = tested on: A498 renal
[54] = tested on: HL-60(TB) leukemia
[55] = tested on: M14 melanoma
[56] = tested on: SK-MEL-5 melanoma
[57] = tested on: RPMI-8226 leukemia
[58] = tested on: CAKI-1 renal
[59] = tested on: ACHN renal

SMILES: C=C1CCC2C3(C)COC(c4ccccc4F)OC3CCC2(C)C1CC(O)C1=CCOC1=O (stereo not drawn)
- GI50 [1]: 3.08 µM
- TGI [1]: > 100 µM
- GI50 [2]: 2100 nM
- TGI [2]: 11.4 µM
- GI50 [3]: 10.7 µM
- TGI [3]: > 100 µM
- GI50 [4]: 25.4 µM
- TGI [4]: > 100 µM
- GI50 [5]: 17.7 µM
- TGI [5]: > 100 µM
- GI50 [6]: 19.3 µM
- TGI [6]: 55.9 µM
- GI50 [7]: 16.9 µM
- TGI [7]: 35.6 µM
- GI50 [8]: 18.2 µM
- TGI [8]: > 100 µM
- GI50 [9]: 28.9 µM
- TGI [9]: > 100 µM
- GI50 [10]: 6.14 µM
- TGI [10]: 92.5 µM
- GI50 [11]: 28.4 µM
- TGI [11]: > 100 µM
- GI50 [12]: 23 µM
- TGI [12]: 42.4 µM
- GI50 [13]: 4.86 µM
- TGI [13]: 19.2 µM
- GI50 [14]: 14.1 µM
- TGI [14]: 30.9 µM
- GI50 [15]: 13.4 µM
- TGI [15]: 54.1 µM
- GI50 [16]: 16.3 µM
- TGI [16]: 50.8 µM
- GI50 [17]: 28.1 µM
- TGI [17]: > 100 µM
- GI50 [18]: 24.4 µM
- TGI [18]: > 100 µM
- GI50 [19]: 5.7 µM
- TGI [19]: > 100 µM
- GI50 [20]: 20 µM
- TGI [20]: > 100 µM
- GI50 [21]: 33.1 µM
- TGI [21]: > 100 µM
- GI50 [22]: 23.6 µM
- TGI [22]: 73.9 µM
- GI50 [23]: 12.6 µM
- TGI [23]: 46.9 µM
- GI50 [24]: 24.2 µM
- TGI [24]: 69.1 µM
- GI50 [25]: 8.93 µM
- TGI [25]: 25.3 µM
- GI50 [26]: 14.9 µM
- TGI [26]: 28.3 µM
- GI50 [27]: 6 µM
- TGI [27]: 21.4 µM
- GI50 [28]: 22.5 µM
- TGI [28]: 68.4 µM
- GI50 [29]: 4.71 µM
- TGI [29]: 19.1 µM
- GI50 [30]: 3.48 µM
- TGI [30]: 20.2 µM
- GI50 [31]: 11.1 µM
- TGI [31]: 23.1 µM
- GI50 [32]: 5.9 µM
- TGI [32]: 22 µM
- GI50 [33]: 11.9 µM
- TGI [33]: 24.6 µM
- GI50 [34]: 25.3 µM
- TGI [34]: > 100 µM
- GI50 [35]: 4.3 µM
- TGI [35]: 17.2 µM
- GI50 [36]: 5.74 µM
- TGI [36]: 22.7 µM
- GI50 [37]: 9.68 µM
- TGI [37]: 26.6 µM
- GI50 [38]: 9.51 µM
- TGI [38]: 33.5 µM
- GI50 [39]: 26.4 µM
- TGI [39]: > 100 µM
- GI50 [40]: 14.6 µM
- TGI [40]: 29.1 µM
- GI50 [41]: 16.7 µM
- TGI [41]: 32.8 µM
- GI50 [42]: 13.8 µM
- TGI [42]: 53.9 µM
- GI50 [43]: 15.9 µM
- TGI [43]: 44.9 µM
- GI50 [44]: 34.6 µM
- TGI [44]: > 100 µM
- GI50 [45]: 18.1 µM
- TGI [45]: 45.4 µM
- GI50 [46]: 57.1 µM
- TGI [46]: > 100 µM
- GI50 [47]: 6.89 µM
- TGI [47]: 26.1 µM
- GI50 [48]: 87.7 µM
- TGI [48]: > 100 µM
- GI50 [49]: 40.8 µM
- TGI [49]: > 100 µM
- GI50 [50]: 15.9 µM
- TGI [50]: 46 µM
- GI50 [51]: 13.3 µM
- TGI [51]: 52.6 µM
- GI50 [52]: 37.1 µM
- TGI [52]: > 100 µM
- GI50 [53]: 23.5 µM
- TGI [53]: 77.2 µM
- GI50 [54]: 5.66 µM
- TGI [54]: > 100 µM
- GI50 [55]: 30 µM
- TGI [55]: > 100 µM
- GI50 [56]: 17.1 µM
- TGI [56]: 39.4 µM
- GI50 [57]: 6.73 µM
- TGI [57]: > 100 µM
- GI50 [58]: 25 µM
- TGI [58]: > 100 µM
- GI50 [59]: 13.4 µM
- TGI [59]: 26.2 µM
